According to the NIST ThermoML archive (doi:10.1021/je034253u):

Test: excess molar enthalpy (molar enthalpy of mixing); xn = mol fraction of the nth substance listed
Settings: Liquid, Flow calorimetry

CC1CO1 (stereo not drawn) [methyloxirane] + CCCC(C)C
323.15 K, 1140 kPa
Settings | excess molar enthalpy [kcal/mol]
x1 = 0.0895 | 0.0966
x1 = 0.1719 | 0.1678
x1 = 0.2479 | 0.2199
x1 = 0.3184 | 0.2548
x1 = 0.3838 | 0.2782
x1 = 0.4447 | 0.2909
x1 = 0.5015 | 0.2964
x1 = 0.5547 | 0.2945
x1 = 0.6045 | 0.2873
x1 = 0.6514 | 0.2763
x1 = 0.6954 | 0.2591
x1 = 0.737 | 0.2397
x1 = 0.7763 | 0.2177
x1 = 0.8134 | 0.1924
x1 = 0.8486 | 0.165
x1 = 0.882 | 0.135
x1 = 0.9137 | 0.103
x1 = 0.9439 | 0.0691
x1 = 0.9726 | 0.0332

FC(F)C(F)(F)F [pentafluoroethane] + FCF
308.15 K, 5130 kPa
Settings | excess molar enthalpy [kcal/mol]
x2 = 0.088 | 0.00598
x2 = 0.1692 | 0.012
x2 = 0.2444 | 0.0174
x2 = 0.3142 | 0.0227
x2 = 0.3792 | 0.0272
x2 = 0.4399 | 0.0308
x2 = 0.4967 | 0.0337
x2 = 0.5499 | 0.0359
x2 = 0.5999 | 0.037
x2 = 0.647 | 0.0375
x2 = 0.6913 | 0.037
x2 = 0.7332 | 0.0359
x2 = 0.7729 | 0.0339
x2 = 0.8105 | 0.0311
x2 = 0.8461 | 0.0275
x2 = 0.88 | 0.0232
x2 = 0.9122 | 0.0182
x2 = 0.9428 | 0.0124
x2 = 0.9721 | 0.00621
